Target: T1, mouse ZnT-1 (Mus musculus, UniProt Q60738)
T1 construct: host or cells: HEK293
T1 sequence (Q60738 1-503): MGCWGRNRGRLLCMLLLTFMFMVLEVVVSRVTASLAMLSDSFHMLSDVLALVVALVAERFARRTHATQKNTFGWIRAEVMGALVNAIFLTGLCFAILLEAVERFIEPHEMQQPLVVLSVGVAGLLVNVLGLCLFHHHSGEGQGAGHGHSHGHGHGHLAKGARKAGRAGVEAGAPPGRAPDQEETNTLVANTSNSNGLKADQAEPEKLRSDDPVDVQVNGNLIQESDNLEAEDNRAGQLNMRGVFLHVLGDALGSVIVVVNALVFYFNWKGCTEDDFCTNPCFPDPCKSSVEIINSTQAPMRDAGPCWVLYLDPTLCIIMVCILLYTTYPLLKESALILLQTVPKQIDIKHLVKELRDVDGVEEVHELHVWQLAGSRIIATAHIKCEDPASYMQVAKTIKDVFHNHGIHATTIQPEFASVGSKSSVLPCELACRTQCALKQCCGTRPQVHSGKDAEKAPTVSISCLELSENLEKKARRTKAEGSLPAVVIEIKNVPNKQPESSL
Test: Zinc efflux assay (FluoZin-3) in ZnT1-transfected HEK293 cells
Assay type: cell-based
Conditions: ZnT1-expressing HEK293 cells, 3 μM overnight, N2AZ versus scN2AZ
Experimental: HEK293 cells were grown in Dulbecco's modified Eagle's medium (DMEM) containing: 100 units/ml penicillin, 0.1 mg/ml streptomycin, 2 mm glutamine, and 10% (v/v) fetal calf serum in a 5% CO2 humidified atmosphere at 37° C. To express ZnT1, HEK 293 cells were transfected with ZnT1 or empty plasmid (control) using CaPO4 precipitation. Briefly,1 μg mouse ZnT-1 (pCMV6:ZnT1 Gen Bank Q60738) or empty vector plasmid (pCMV6, Origene) was incubated with 2 M calcium chloride in HEPES buffered solution containing […] to generate a co-precipitate, this solution was then dispersed onto cultured cells for 6 hours. Twenty four hours later, cells were treated with the scN2AZ or N2AZ (3 μM ) overnight. […] Rates of initial decrease of the fluorescent signal following exposure to Zn^2+ were determined during a 100 second period. […] Fluorescence imaging measurements were acquired using Axon Imaging Workbench 5.2 (INDEC BioSystems) and analyzed using Excel and Prism GraphPad.
Next, it was examined whether N2AZ could modify ZnT1-dependent zinc transport. Following an intracellular zinc load, decreases in intracellular zinc levels were measured over time as a readout of zinc transport in HEK293 cells previously transfected with a plasmid encoding for ZnT1 or an empty vector. FluoZin-3 fluorescence was utilized to quantify intracellular zinc levels (Qin et al., 2009; Shusterman et al., 2014). […]

For NDSYLRSSL [Peptide N2AZ], the “rate of zinc efflux” value was “not different”.

From US20230034660A1, “PEPTIDES THAT ENHANCE NMDA RECEPTOR FUNCTION AND USE THEREOF” (University of Pittsburgh - Of the Commonwealth System of …, priority 2019, published 2023)
